Measurements reported in PMC10537280, “Chemo-/Regio-Selective Synthesis of Novel Functionalized Spiro[pyrrolidine-2,3′-oxindoles] under Microwave Irradiation and Their Anticancer Activity” (Molecules, 2023).
Like-named read-outs stand apart in the source and are kept apart here.

What was measured:
[1] = tested on: human HepG2 cancer cell lines; assay: MTT cytotoxicity assay, liver cancer HepG2 cells; format: cell-based; conditions: for IC50: Homo sapiens, HepG2, 72 h, read-out: HepG2 Cells IC50; for S.I. Selectivity index liver (IC50 normal cells/IC50 cancer cells): LO2 IC50 / HepG2 IC50
Protocol: (§1) Adenocarcinomic human alveolar basal epithelial (A549) and human hepatoma (HepG2) cancer cell lines, immortalized normal human liver (LO2), human bronchial epithelial (BEAS-2B cells were purchased from [NT], Manassas, VA, USA). […] Invitrogen, Waltham, MA, USA). All cells were incubated at 37 °C in a 5% humidified CO2 incubator). All test compounds were dissolved in DMSO at a final concentration of 50 mM and stored at -20 °C before use. Cytotoxicity was assessed by the MTT (5 mg/mL) assay, as described previously. Briefly, 5 × 10^3 cells per well were seeded in 96-well plates before drug treatments. […] Cells without drug treatment were used as controls. Subsequently, 10 μL of 5 mg/mL MTT solution was added to each well and incubated at 37 °C for 4 h, followed by the addition of 100 μL solubilization buffer (12 mM HCl in a solution of 10% SDS) and overnight incubation. The absorbance, A570 nm, was then determined in each well on the next day. The percentage of cell viability was calculated using the expression: % viability = Atreated/Acontrol × 100, and was given as cytotoxicity (Table 2 and Table 3; […]

[2] = tested on: immortalized lung BEAS-2B normal cell lines; assay: MTT cytotoxicity assay, normal lung BEAS-2B cells; format: cell-based; conditions: Homo sapiens, 72 h, read-out: BEAS-2B Cells IC50
Protocol: as §1

[3] = tested on: immortalized liver LO2 normal cell lines; assay: MTT cytotoxicity assay, normal liver LO2 cells; format: cell-based; conditions: Homo sapiens, read-out: LO2 Cells IC50
Protocol: as §1

[4] = tested on: human lung A549 cancer cell lines; assay: MTT cytotoxicity assay, lung cancer A549 cells; format: cell-based; conditions: for IC50: Homo sapiens, read-out: A549 Cells IC50; for S.I. Selectivity index lung (IC50 normal cells/IC50 cancer cells): BEAS-2B IC50 / A549 IC50
Protocol: as §1

[5] = MTT, 72 h, 0.19–100 μM, means of at least three independent experiments in duplicates
[6] = MTT, 0.19–100 μM, normal lung cells
[7] = L02, MTT, 72 h, 0.19–100 μM, normal liver cells
[8] = A549, MTT, 72 h, 0.19–100 μM, means of at least three independent experiments in duplicates

| Compound | IC50 [1, 5] | IC50 [2, 6] | IC50 [3, 7] | IC50 [4, 8] | melting point | S.I. Selectivity index liver (IC50 normal cells/IC50 cancer cells) [1] | S.I. Selectivity index lung (IC50 normal cells/IC50 cancer cells) [4] | IC50 [1] | IC50 [2] | IC50 ([3]; L02, 72 h) | IC50 ([4]; A549, 72 h) |
| --- | --- | --- | --- | --- | --- | --- | --- | --- | --- | --- | --- |
| COc1cc(C2C([N+](=O)[O-])C3CCCN3C23C(=O)Nc2ccc(Br)cc23)ccc1OCc1ccccc1 (stereo not drawn) [Compound 4o, 2′-(4-(benzyloxy)-3-methoxyphenyl)-5-bromo-1′-nitro-1′,2′,5′,6′,7′,7a′-hexahydrospiro[indoline-3,3′-pyrrolizin]-2-one] | > 100 µM | > 100 µM | > 100 µM | > 100 µM | 95 to 97 °C | – | – | – | – | – | – |
| COc1cccc(C2C([N+](=O)[O-])C3CCCN3C23C(=O)Nc2ccc(Br)cc23)c1 (stereo not drawn) [Compound 4t, 5-bromo-2′-(3-methoxyphenyl)-1′-nitro-1′,2′,5′,6′,7′,7a′-hexahydrospiro[indoline-3,3′-pyrrolizin]-2-one] | 46.1 µM | 67.7 µM | 45.5 µM | 45.2 µM | 145 to 147 °C | 0.99 | 1.50 | – | – | – | – |
| COc1ccc(C2C([N+](=O)[O-])C3CCCN3C23C(=O)Nc2ccccc23)cc1 (stereo not drawn) [Compound 4r, 2′-(4-methoxyphenyl)-1′-nitro-1′,2′,5′,6′,7′,7a′-hexahydrospiro[indoline-3,3′-pyrrolizin]-2-one] | > 100 µM | > 100 µM | > 100 µM | > 100 µM | 116 to 118 °C | – | – | – | – | – | – |
| C[C@H]1[C@H](OC(=O)CCC(=O)O)O[C@@H]2O[C@@]3(C)CC[C@H]4[C@H](C)CC[C@@H]1[C@@]24OO3 [AS, artesunic acid, reference compound] | 4.09 ± 0.4 µM | 7.53 µM | 8.25 µM | 9.85 µM | – | 2.01 | 0.76 | – | – | – | – |
| COc1cc(C2C([N+](=O)[O-])C(C)NC23C(=O)Nc2ccccc23)ccc1OCc1ccccc1 (stereo not drawn) [Compound 4l, 3′-(4-(benzyloxy)-3-methoxyphenyl)-5′-methyl-4′-nitrospiro[indoline-3,2′-pyrrolidin]-2-one] | > 100 µM | > 100 µM | > 100 µM | > 100 µM | 168 to 170 °C | – | – | – | – | – | – |
| COc1cc(C2C([N+](=O)[O-])C(CC(C)C)NC23C(=O)Nc2ccccc23)ccc1OCc1ccccc1 (stereo not drawn) [Compound 4k, 3′-(4-(benzyloxy)-3-methoxyphenyl)-5′-isobutyl-4′-nitrospiro[indoline-3,2′-pyrrolidin]-2-one] | 67.8 µM | > 100 µM | 33.3 µM | > 100 µM | 68 to 70 °C | 0.49 | – | – | – | – | – |
| COc1ccc(OC)c(C2C([N+](=O)[O-])C(CC(C)C)NC23C(=O)Nc2ccc(Br)cc23)c1 (stereo not drawn) [Compound 4c, 5-bromo-3′-(2,5-dimethoxyphenyl)-5′-isobutyl-4′-nitrospiro[indoline-3,2′-pyrrolidin]-2-one] | 60.3 µM | 33.5 µM | 37.6 µM | 35 µM | 142 to 144 °C | 0.62 | 0.96 | – | – | – | – |
| COc1ccc(C2C([N+](=O)[O-])C3CCCN3C23C(=O)Nc2ccccc23)cc1OCc1ccccc1 (stereo not drawn) [Compound 4p, 2′-(3-(benzyloxy)-4-methoxyphenyl)-1′-nitro-1′,2′,5′,6′,7′,7a′-hexahydrospiro[indoline-3,3′-pyrrolizin]-2-one] | > 100 µM | > 100 µM | > 100 µM | > 100 µM | 83 to 85 °C | – | – | – | – | – | – |
| COc1ccc(C2C([N+](=O)[O-])C(CC(C)C)NC23C(=O)Nc2ccc(Br)cc23)cc1OCc1ccccc1 (stereo not drawn) [Compound 4f, 3′-(3-(benzyloxy)-4-methoxyphenyl)-5-bromo-5′-isobutyl-4′-nitrospiro[indoline-3,2′-pyrrolidin]-2-one] | 82 µM | > 100 µM | > 100 µM | 41.1 µM | 95 to 97 °C | – | – | – | – | – | – |
| C[C@@H]1CC[C@H]2[C@@H](C)C(=O)O[C@@H]3O[C@@]4(C)CC[C@@H]1[C@]32OO4 [ART, artemisinin, reference compound] | > 100 µM | 100 µM | > 100 µM | 100 µM | – | – | – | – | – | – | – |
| COc1cc(C2C([N+](=O)[O-])C(C)NC23C(=O)Nc2ccc(Br)cc23)ccc1OCc1ccccc1 (stereo not drawn) [Compound 4m, 3′-(4-(benzyloxy)-3-methoxyphenyl)-5-bromo-5′-methyl-4′-nitrospiro[indoline-3,2′-pyrrolidin]-2-one] | 41.6 µM | 63.5 µM | 36.6 µM | 45.9 µM | 168 to 170 °C | 0.88 | 1.38 | – | – | – | – |
| COc1ccc(OC)c(C2C([N+](=O)[O-])C(CC(C)C)NC23C(=O)Nc2ccccc23)c1 (stereo not drawn) [Compound 4a, 3′-(2,5-dimethoxyphenyl)-5′-isobutyl-4′-nitrospiro[indoline-3,2′-pyrrolidin]-2-one] | > 100 µM | > 100 µM | > 100 µM | > 100 µM | 182 to 184 °C | – | – | – | – | – | – |
| COc1ccc(OC)c(C2C([N+](=O)[O-])C(C)NC23C(=O)Nc2ccc(Br)cc23)c1 (stereo not drawn) [Compound 4e, 5-bromo-3′-(2,5-dimethoxyphenyl)-5′-methyl-4′-nitrospiro[indoline-3,2′-pyrrolidin]-2-one] | > 100 µM | > 100 µM | 81.3 µM | 85.6 µM | 108 to 110 °C | <0.81 | – | – | – | – | – |
| COc1ccc(C2C([N+](=O)[O-])C3CCCN3C23C(=O)Nc2ccc(Br)cc23)cc1OC (stereo not drawn) [Compound 4w, 5-bromo-2′-(3,4-dimethoxyphenyl)-1′-nitro-1′,2′,5′,6′,7′,7a′-hexahydrospiro [indoline-3,3′-pyrrolizin]-2-one] | > 100 µM | > 100 µM | > 100 µM | > 100 µM | 195 to 197 °C | – | – | – | – | – | – |
| COc1ccc(C2C([N+](=O)[O-])C(Cc3ccccc3)NC23C(=O)Nc2ccc(Br)cc23)cc1OCc1ccccc1 (stereo not drawn) [Compound 4g, 5′-benzyl-3′-(3-(benzyloxy)-4-methoxyphenyl)-5-bromo-4′-nitrospiro[indoline-3,2′-pyrrolidin]-2-one] | > 100 µM | > 100 µM | > 100 µM | > 100 µM | 155 to 157 °C | – | – | – | – | – | – |
| COc1ccc(OC)c(C2C([N+](=O)[O-])C(C)NC23C(=O)Nc2ccccc23)c1 (stereo not drawn) [Compound 4b, 3′-(2,5-dimethoxyphenyl)-5′-methyl-4′-nitrospiro[indoline-3,2′-pyrrolidin]-2-one] | > 100 µM | > 100 µM | > 100 µM | > 100 µM | 150 to 152 °C | – | – | – | – | – | – |
| COc1ccc(C2C([N+](=O)[O-])C(C)NC23C(=O)Nc2ccc(Br)cc23)cc1OC (stereo not drawn) [Compound 4j, 5-bromo-3′-(3,4-dimethoxyphenyl)-5′-methyl-4′-nitrospiro[indoline-3,2′-pyrrolidin]-2-one] | > 100 µM | > 100 µM | > 100 µM | > 100 µM | 155 to 157 °C | – | – | – | – | – | – |
| COc1ccc(OC)c(C2C([N+](=O)[O-])C(C(C)C)NC23C(=O)Nc2ccccc23)c1 (stereo not drawn) [Compound 4d, 3′-(2,5-dimethoxyphenyl)-5′-isopropyl-4′-nitrospiro[indoline-3,2′-pyrrolidin]-2-one] | > 100 µM | > 100 µM | > 100 µM | > 100 µM | 210 to 212 °C | – | – | – | – | – | – |
| COc1ccc(C2C([N+](=O)[O-])C3CCCN3C23C(=O)Nc2ccccc23)cc1OC (stereo not drawn) [Compound 4v, 2′-(3,4-dimethoxyphenyl)-1′-nitro-1′,2′,5′,6′,7′,7a′-hexahydrospiro[indoline-3,3′-pyrrolizin]-2-one] | > 100 µM | > 100 µM | > 100 µM | > 100 µM | 175 to 177 °C | – | – | – | – | – | – |
| CCN(CC)CCCC(C)Nc1ccnc2cc(Cl)ccc12 (stereo not drawn) [CQ, chloroquine, reference compound] | – | – | – | – | – | 0.30 | – | 49.02 ± 0.4 µM | 3.07 µM | 15 µM | 100 µM |
